In patent US6998410B2, “Compositions” (Altana Pharma AG, priority 1997, dated 2006):

Tested on: Adult Sprague Dawley rats lavaged until their endogenous lung surfactant is washed out
Test: Arterial oxygen partial pressure (PaO2) in lung-lavaged, ventilated rats (animal model of ARDS) after intratracheal instillation
Assay type: in vivo, rat (Sprague Dawley)
Conditions: for PaO2, average value (± standard deviation): Compound A 600 μg/kg alone
Source text: Adult Sprague Dawley rats are artificially ventilated with pure oxygen and a positive end-expiratory pressure (PEEP; in order to guarantee oxygenation of the rats) and lavaged until their endogenous lung surfactant is washed out (D. Häfner, U. Kilian and R. Beume: Comparison of four lung surfactant preparations in an animal model of adult respiratory distress syndrome (ARDS). Am. Rev. Respir. Dis. 1993, 147:A719; D. Häfner, P. -G. Germann, D. Hauschke, Pulmonary Pharmacology (1994) 7, 319–332). This is manifested by the fact that in the animals the preliminary values of the arterial oxygen partial pressure (PaO2) of 500–550 mm Hg (in the case of pure oxygen ventilation and PEEP) decrease to values of 50–110 mm Hg. Animals of the control group, which are not treated with lung surfactant, remain with their PaO2 at these low values throughout the observation period. Sixty minutes after the PaO2 has decreased to these values, lung surfactant or lung surfactant together with N-(3,5-dichloropyrid-4-yl)-3-cyclopropylmethoxy-4-difluoromethoxybenzamide is instilled intratracheally. The blood gases are determined 30 and 120 minutes after instillation.
In Table 1 and Table 2 which follow, in line A the average values (±standard deviation) of the PaO2 are indicated in mm Hg for the time 30 minutes (constant PEEP of 8 cm H2O) after intratracheal instillation and in line B 120 minutes after intratracheal instillation. […] This follows by comparison with the untreated control animals. […] It is therefore possible to save a part of the very expensive lung surfactant, or else to obtain an increased action of each individual component.

## O=C(Nc1c(Cl)cncc1Cl)c1ccc(OC(F)F)c(OCC2CC2)c1 [Compound A, N-(3,5-dichloropyrid-4-yl)-3-cyclopropylmethoxy-4-difluoromethoxybenzamide]
Line A: 30 minutes after intratracheal instillation (constant PEEP of 8 cm H2O)
  PaO2, average value (± standard deviation): 59 ± 12 mm Hg
Line B: 120 minutes after intratracheal instillation
  PaO2, average value (± standard deviation): 75 ± 24 mm Hg
Sole administration, by comparison with the untreated control animals
  Influence on the PaO2 (in words): no influence on the PaO2
